These results are taken from US10179771B2 (GALAPAGOS NV, priority 2014, dated 2019).

The structures appear in SMILES notation. Some results are limits rather than exact numbers.

The target in one assay is T1, Recombinant human JAK2 catalytic domain (Homo sapiens, UniProt O60674).
T1 construct: Recombinant human JAK2 catalytic domain (amino acids 808-1132; catalog number PV4210); GST; purchased Invitrogen PV4210
T1 sequence (O60674 808-1132): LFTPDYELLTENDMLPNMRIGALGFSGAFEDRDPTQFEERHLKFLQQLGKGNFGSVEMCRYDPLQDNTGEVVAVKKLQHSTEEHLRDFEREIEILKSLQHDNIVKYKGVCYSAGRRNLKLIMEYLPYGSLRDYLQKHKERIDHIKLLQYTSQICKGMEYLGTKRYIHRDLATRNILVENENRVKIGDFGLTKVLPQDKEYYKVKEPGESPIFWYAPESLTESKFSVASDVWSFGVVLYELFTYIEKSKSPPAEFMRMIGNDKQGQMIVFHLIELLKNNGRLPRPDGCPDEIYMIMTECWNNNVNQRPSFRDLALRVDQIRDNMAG
Put plainly: JAK2 inhibition assay (polyGT substrate / Ulight-JAK1 peptide assay). The format is biochemical. Particulars: Comparative Compounds (Table VIII). As to the method: Recombinant human JAK2 catalytic domain (amino acids 808-1132; catalog number PV4210) was purchased from Invitrogen. 0.025 mU of JAK2 is incubated with […] polyGT substrate (Sigma catalog number P0275) in kinase reaction buffer (5 mM MOPS pH 7.5, 9 mM MgAc, 0.3 mM EDTA, 0.06% Brij and 0.6 mM DTT, 1 μM non-radioactive ATP, 0.25 μCi ^33P-gamma-ATP (GE Healthcare, catalog number AH9968) final concentrations) with or without 5 μL containing test compound or vehicle (DMSO, 1% final concentration), in a total volume of 25 μL, in a polypropylene 96-well plate (Greiner, V-bottom). After 90 min at 30° C., reactions are stopped by adding of 25 μL/well of 150 mM phosphoric acid. All of the terminated kinase reaction is transferred to prewashed (75 mM phosphoric acid) 96 well filter plates (Perkin Elmer catalog number 6005177) using a cell harvester (Perkin Elmer). Plates are washed 6 times with 300 μL per well of a 75 mM phosphoric acid solution and the bottom of the plates is sealed. 40 μL/well of Microscint-20 is added, the top of the plates is sealed and readout is performed using the Topcount (Perkin Elmer). Kinase activity is calculated by subtracting counts per min (cpm) obtained in the presence of a positive control inhibitor (10 μM staurosporine) from cpm obtained in the presence of vehicle. The ability of a test compound to inhibit this activity is determined as:
[formula] • RFU test compound=RFU determined for sample with test compound present • RFU control=RFU determined for sample with positive control inhibitor • RFU vehicle=RFU determined in the presence of vehicle
Dose dilution series are prepared for the compounds enabling the testing of dose-response effects in the JAK2 assay and the calculation of the IC50 for each compound. Each compound is routinely tested at concentration of 20 μM followed by a 1/3 serial dilution, 8 points (20 μM-6.67 μM-2.22 μM-740 nM-247 nM-82 nM-27 nM-9 nM) in a final concentration of 1% DMSO. When potency of compound series increased, more dilutions are prepared and/or the top concentration is lowered (e.g. 5 μM, 1 μM).
Recombinant human JAK2 (catalytic domain, amino acids 866-1154; catalog number PV4210) was purchased from Invitrogen. 0.0125 mU of JAK2 was incubated with 25 nM Ulight-JAK1 (tyr1023) peptide (Perkin Elmer catalog number TRF0121) in kinase reaction buffer (25 mM HEPES pH7.0, 0.01% Triton X-100, 7.5 mM MgCl2, 2 mM DTT, 7.5 μM ATP) with or without 4 μL containing test compound or vehicle (DMSO, 1% final concentration), in a total volume of 20 μL, in a white 384 Opti plate (Perkin Elmer, catalog number 6007290). After 60 min at room temperature, reactions were stopped by adding 20 μL/well of detection mixture (1× detection buffer (Perkin Elmer, catalog number CR97-100C), 0.5 nM Europium-anti-phosphotyrosine (PT66) (Perkin Elmer, catalog number AD0068), 10 mM EDTA). Readout is performed using the Envision with excitation at 320 nm and measuring emission at 615 nm (Perkin Elmer). Kinase activity was calculated by subtracting relative fluorescence units (RFU) obtained in the presence of a positive control inhibitor (10 μM staurosporine) from RFU obtained in the presence of vehicle. The ability of a test compound to inhibit this activity was determined as: Percentage inhibition=((RFU determined for sample with test compound present−RFU determined for sample with positive control inhibitor) divided by (RFU determined in the presence of vehicle−RFU determined for sample with positive control inhibitor))*100.
Dose dilution series are prepared for compound enabling the testing of dose-response effects in the JAK2 assay and the calculation of the IC50 for the compound. Each compound is routinely tested at concentration of 20 μM followed by a 1/5 serial dilution, 10 points in a final concentration of 1% DMSO. When potency of compound series increases, more dilutions are prepared and/or the top concentration are lowered (e.g. 5 μM, 1 μM). […]
On to `CN(c1cc2c(cn1)ncn2C)c1ccc(C#N)cc1F` [D, reference compound], for which the IC50 was more than 500 nM.

The same assay, now with this note: Illustrative Compounds of the invention (Table VII).
Turning to `CCc1cc(C(N)=O)ncc1N(C)c1cc(NC(=O)C2CC2)c2ncn(C)c2c1` [Cpd 24, 5-((4-(cyclopropanecarboxamido)-1-methyl-1H-benzo[d]imidazol-6-yl)(methyl)amino)-4-ethylpicolinamide], the IC50 lay within 0.1 to 50 nM.
Consider `CCc1cc(C(N)=O)ncc1N(C)c1cc(NC(=O)[C@H]2C[C@H]2F)c2ncn(C)c2c1` [Cpd 25, 4-ethyl-5-((4-((1R,2R)-2-fluorocyclopropanecarboxamido)-1-methyl-1H-benzo[d]imidazol-6-yl)(methyl)amino)picolinamide], for which the IC50 lay within 0.1 to 50 nM.
As to `Cc1cc(S(C)(=O)=O)ccc1N(C)c1cc(NC(=O)[C@H]2C[C@H]2F)c2ncn(C)c2c1` [Cpd 26, (1R,2R)-N-[6-(N,2-dimethyl-4-methylsulfonyl-anilino)-1-methyl-benzimidazol-4-yl]-2-fluoro-cyclopropanecarboxamide], the IC50 is 50 to 100 nM.
Consider `CCS(=O)(=O)c1ccc(N(C)c2cc(NC(=O)[C@H]3C[C@H]3F)c3ncn(C)c3c2)c(C)c1` [Cpd 27, (1R,2R)-N-[6-(4-ethylsulfonyl-N,2-dimethyl-anilino)-1-methyl-benzimidazol-4-yl]-2-fluoro-cyclopropanecarboxamide], for which the IC50 lay in the range of 100 to 500 nM.
With `Cc1cc(C#N)ncc1Oc1cc(N)c2ncn(C)c2c1` [Cpd 28, 5-(7-amino-3-methyl-benzimidazol-5-yl)oxy-4-methyl-pyridine-2-carbonitrile], the concentration for half-maximal inhibition (IC50) is more than 500 nM.
Still for that read-out and setting: then `CCc1cc(S(C)(=O)=O)ncc1Oc1cc(NC(=O)C2CC2)c2ncn(C)c2c1` [Cpd 29, N-[6-[(4-ethyl-6-methylsulfonyl-3-pyridyl)oxy]-1-methyl-benzimidazol-4-yl]cyclopropanecarboxamide], with 100 to 500 nM; and `Cc1cc(C(N)=O)ncc1Oc1cc(NC(=O)[C@H]2C[C@H]2F)c2ncn(C)c2c1` [Cpd 32, 5-[7-[[(1R,2R)-2-fluorocyclopropanecarbonyl]amino]-3-methyl-benzimidazol-5-yl]oxy-4-methyl-pyridine-2-carboxamide], with 50 to 100 nM; and `CNc1cc(Oc2cnc(C#N)cc2C)cc2c1ncn2C` [Cpd 34, 4-methyl-5-[3-methyl-7-(methylamino)benzimidazol-5-yl]oxy-pyridine-2-carbonitrile], with more than 500 nM.
In the case of `Cc1cc(C#N)ncc1Oc1cc(N(C)C)c2ncn(C)c2c1` [Cpd 35, 5-[7-(dimethylamino)-3-methyl-benzimidazol-5-yl]oxy-4-methyl-pyridine-2-carbonitrile], the IC50 was more than 500 nM.
Still for that read-out and setting: then `Cc1cc(C#N)ncc1Oc1cc(NC(=O)N2CC(O)C2)c2ncn(C)c2c1` [Cpd 36, N-[6-[(6-cyano-4-methyl-3-pyridyl)oxy]-1-methyl-benzimidazol-4-yl]-3-hydroxy-azetidine-1-carboxamide], with more than 500 nM.
On the same count and under the same terms, then `Cc1cc(C#N)ncc1Oc1cc(NC(=O)N2CCOCC2)c2ncn(C)c2c1` [Cpd 37, N-[6-[(6-cyano-4-methyl-3-pyridyl)oxy]-1-methyl-benzimidazol-4-yl]morpholine-4-carboxamide], with more than 500 nM; and `Cc1cc(C#N)ncc1Oc1cc(NC(=O)NC(C)C)c2ncn(C)c2c1` [Cpd 38, 1-[6-[(6-cyano-4-methyl-3-pyridyl)oxy]-1-methyl-benzimidazol-4-yl]-3-isopropyl-urea], with 100 to 500 nM.
